Reference: patent US7033829B2, “Method to inhibit cell growth using oligonucleotides” (Trustees of Boston University, priority 2000, dated 2006)
Oligonucleotides are written 5' to 3', each unit as a sugar letter and its base; * is a phosphorothioate linkage, no mark a phosphodiester; rarer units and linkages stand in square brackets, end groups in braces. Plain capitals give the bases only. d = 2'-deoxy (DNA); {P} = phosphate

Legend:
[1] = tested on: melanin in ear skin; test: In vivo melanogenic activity on ears (Fontana Masson); design: species or system mice; conditions: 100 μM once daily in propylene glycol; 15 days
Experimental: In another experiment, mice were treated once daily with either 100 μM pTpT or SEQ ID NO: 1 containing a 5′ phosphate in propylene glycol on one ear, or vehicle alone on the other ear. After 15 days, when the ears were sectioned and stained with Fontana Masson to detect melanin compared to vehicle controls, there was a 70% increase in pigmentation in pTpT-treated ears and a 250% increase with SEQ ID NO: 1. Thus, both compounds comprising as few as 2 and as many as 9 nucleotides are effective at producing the in vitro UV-mimetic effects in vivo.

[2] = tested on: S91 cells; test: Cellular uptake of FAM-labeled oligonucleotides in S91 cells; type: in vitro ADME, mouse; conditions: 4 hours
Experimental: Fluorescein phosphoramidite (FAM) labeled oligonucleotides were added to cultures of S91 cells for 4 hours and the cells were then prepared for confocal microscopy. Nuclei, identified by staining with propidium iodide, appeared red and FAM-labeled oligonucleotides appeared green. Co-localization of red and green signals was assigned a yellow color by the computer. […] There was no change in the profile of oligonucleotide uptake after 6 and 24 hours.

[3] = tested on: MM-AN cells; test: Tumorigenicity of pretreated MM-AN cells in SCID mice; type: in vivo; conditions: cells pretreated 40 μM 48 hours; day 18 (diluent 322±45)
Experimental: To study the effect of T-oligo on the tumorigenicity of MM-AN cells, cells were grown in DMEM with 5% fetal bovine serum (FBS) and treated with 40 μM of T-oligo, complement, or diluent alone for 48 hours. The cells were then harvested with trypsin/EDTA and the percent viability determined by trypan blue exclusion. […] The tumorigenicity of these melanoma cells was determined by injecting 1×10^6 viable cells in balanced salt solution subcutaneously over the right scapular region of SCID mice (3 groups of 5 mice) to produce tumors. The animals were sacrificed by CO2 inhalation 18 days after treatment and the tumor size evaluated with calipers. Tumors were processed for hematoxylin and eosin staining and the melanocytic origin of the tumors was confirmed by immunohistochemical staining of the lesion using HMB-45 monoclonal antibody, which recognizes gp-100, a conventional marker for human melanoma.

[4] = tested on: UV-damaged CAT reporter plasmid in human keratinocytes; test: Repair of UV-damaged CAT reporter plasmid in keratinocytes; type: cell-based; conditions: 100 μM for five days before transfection; plasmid 100 mJ/cm^2 UVB
Source text: Expression of a UV-damaged reporter plasmid containing the bacterial chloramphenicol acetyltransferase (CAT) gene under the control of SV40 promoter and enhancer sequences was previously shown to detect decreased DNA repair capacity in human lymphocytes associated with aging and early-onset skin cancers. This reporter plasmid was used to measure the DNA repair capacity of normal neonatal human skin-derived fibroblasts and keratinocytes.
Keratinocytes from newborns were established as described (Stanulis-Praeger, B. M. and Gilchrest, B. A., J. Cell. Physiol. 139:116–124 (1989)) using a modification of the method of Rheinwald and Green (Gilchrest, B. A. et al., J. Invest. Dermatol. 101:666–672 (1993)). First-passage keratinocytes were maintained in a non-differentiating low Ca^2+ medium (K-Stim, Collaborative Biomedical Products, Bedford, Mass.). […] CAT enzyme activity was determined using the liquid scintillation counting protocol and components of the assay system kit. […] Protein concentration in the cell extracts was determined by the method of Bradford (Anal. Biochem. 72:248 […]). CAT activity was expressed as c.p.m./100 μg protein and is represented as percent activity of cells transfected with sham-irradiated, non-damaged, plasmid.

[5] = molecular target: p53 (Homo sapiens, UniProt P04637); test: p53 assay using hGH reporter plasmid in keratinocytes; type: cell-based; design: expressed in transfected cells; vector from Dr. Bert Vogelstein; conditions: 100 μM; 24 hours
Sequence of p53 (P04637 whole entry): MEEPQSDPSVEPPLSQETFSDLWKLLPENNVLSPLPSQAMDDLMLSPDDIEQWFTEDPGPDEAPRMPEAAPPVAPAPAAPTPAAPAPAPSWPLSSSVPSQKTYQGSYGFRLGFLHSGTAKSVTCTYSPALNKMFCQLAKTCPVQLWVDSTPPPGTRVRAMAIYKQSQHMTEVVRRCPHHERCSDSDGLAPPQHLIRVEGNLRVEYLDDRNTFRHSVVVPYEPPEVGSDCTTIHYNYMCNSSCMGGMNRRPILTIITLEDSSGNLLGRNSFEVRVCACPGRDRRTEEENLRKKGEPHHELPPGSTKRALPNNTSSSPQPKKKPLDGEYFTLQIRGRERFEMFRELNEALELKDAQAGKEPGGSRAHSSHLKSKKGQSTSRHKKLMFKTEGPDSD
Experimental: Transfection was performed in the presence of 100 μM pTpT (Midland Certified Reagent Company, Midland, Tex.) or an equal volume of diluent. At the same time, the PSV-β-galactosidase control vector (Promega, Madison, Wis.) was co-transfected to determine the transfection efficiency (Norton and Coffin, 1985). Four hours after transfection, the medium was removed and replaced with K-Stim medium with or without 100 μM pTpT. Twenty-four hours after transfection and pTpT treatment, 400 μl of the medium was harvested from each 35 mm culture dish, and 100 μl of ^125I-hGH antibody solution (Nichols Institute Diagnostics, San Juan Capistrano, Calif.) was added to detect secreted hGH as described below. The cells were harvested in a Reporter Lysis Buffer (Promega) using a protocol provided by the manufacturer, and 150 μl of this lysate was used for the β-galactosidase assay using a β-galactosidase assay kit (Promega). Samples from each of triplicate culture dishes were evaluated for hGH and β-galactosidase synthesis.
To confirm the activation of p53 by pTpT in a second assay, a reporter plasmid expressing the human growth hormone (hGH) gene under the influence of a p53 inducible promoter was employed. Activation of p53 increases its binding to the consensus sequence in the plasmid, leading to transcription of the hGH coding sequence and ultimately to secretion of hGH into the medium.

Substance	increase in pigmentation compared to vehicle controls [1] [%]	cellular uptake and localization (confocal microscopy, FACS) [2]	Mean tumor volume [3] [mm^3]	CAT activity relative to sham-irradiated transfected controls [4]	increase in hGH secretion compared to diluent-treated cells [5]
pGAGTATGAG (DNA, 5' {P}, backbone not given here) [SEQ ID NO: 1]	250	intense staining that strongly localized to the nucleus			
pCTAACCCTAAC (DNA, 5' {P}, backbone not given here) [SEQ ID NO: 9, reference compound]			238±50		
pGTTAGGGTTAG (DNA {P}-dGdTdTdAdGdGdGdTdTdAdG) [SEQ ID NO: 5]			56±13		
thymidine dinucleotide [pTpT]	70	strong green fluorescence in the cytoplasm, but only a small amount of nuclear localization		more than 50%	45%±25%
